According to PubChem BioAssay (NCI):
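1) Cells in 96-well plates. 2) Compound, 48 h, 5 concentrations. 3) Linear interpolation between surrounding doses. 4) Unreached endpoint = highest concentration. At the GI50, growth is halved. TGI: total growth inhibition.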

How the values were obtained:
Test in all cases: NCI-60 cell line screen, 48 h
786-0 renal = test system: 786-0 renal
A498 renal = test system: A498 renal
A549 NSCLC = test system: A549 NSCLC
ACHN renal = test system: ACHN renal
BT-549 breast = test system: BT-549 breast
CAKI-1 renal = test system: CAKI-1 renal
CCRF-CEM leukemia = test system: CCRF-CEM leukemia
COLO 205 colon = test system: COLO 205 colon
DU-145 prostate = test system: DU-145 prostate
EKVX NSCLC = test system: EKVX NSCLC
HCC-2998 colon = test system: HCC-2998 colon
HCT-116 colon = test system: HCT-116 colon
HCT-15 colon = test system: HCT-15 colon
HL-60(TB) leukemia = test system: HL-60(TB) leukemia
HOP-62 NSCLC = test system: HOP-62 NSCLC
HOP-92 NSCLC = test system: HOP-92 NSCLC
HS 578T breast = test system: HS 578T breast
HT29 colon = test system: HT29 colon
IGROV1 ovarian = test system: IGROV1 ovarian
K-562 leukemia = test system: K-562 leukemia
KM12 colon = test system: KM12 colon
LOX IMVI melanoma = test system: LOX IMVI melanoma
M14 melanoma = test system: M14 melanoma
MALME-3M melanoma = test system: MALME-3M melanoma
MCF7 breast = test system: MCF7 breast
MDA-MB-231 breast = test system: MDA-MB-231 breast
MDA-MB-435 = test system: MDA-MB-435
MOLT-4 leukemia = test system: MOLT-4 leukemia
NCI-H226 lung = test system: NCI-H226 lung
NCI-H23 lung = test system: NCI-H23 lung
NCI-H460 lung = test system: NCI-H460 lung
NCI-H522 lung = test system: NCI-H522 lung
NCI/ADR-RES ovarian = test system: NCI/ADR-RES ovarian
OVCAR-3 ovarian = test system: OVCAR-3 ovarian
OVCAR-4 ovarian = test system: OVCAR-4 ovarian
OVCAR-5 ovarian = test system: OVCAR-5 ovarian
OVCAR-8 ovarian = test system: OVCAR-8 ovarian
PC-3 prostate = test system: PC-3 prostate
RPMI-8226 leukemia = test system: RPMI-8226 leukemia
RXF 393 renal = test system: RXF 393 renal
SF-268 CNS = test system: SF-268 CNS
SF-295 CNS = test system: SF-295 CNS
SF-539 CNS = test system: SF-539 CNS
SK-MEL-2 melanoma = test system: SK-MEL-2 melanoma
SK-MEL-28 melanoma = test system: SK-MEL-28 melanoma
SK-MEL-5 melanoma = test system: SK-MEL-5 melanoma
SK-OV-3 ovarian = test system: SK-OV-3 ovarian
SN12C renal = test system: SN12C renal
SNB-19 CNS = test system: SNB-19 CNS
SNB-75 CNS = test system: SNB-75 CNS
SR leukemia = test system: SR leukemia
SW-620 colon = test system: SW-620 colon
T-47D breast = test system: T-47D breast
TK-10 renal = test system: TK-10 renal
U251 CNS = test system: U251 CNS
UACC-257 melanoma = test system: UACC-257 melanoma
UACC-62 melanoma = test system: UACC-62 melanoma
UO-31 renal = test system: UO-31 renal

Work on `CN1CCN(C(=O)OCc2nc3c(N4CCOCC4)nc(-c4ccccc4)nc3n2C)CC1` yielded a GI50 (786-0 renal) of 993 nM, a TGI (786-0 renal) of 2360 nM and a GI50 (A498 renal) of 1530 nM. It also gave a TGI (A498 renal) of 2910 nM, a GI50 (A549 NSCLC) of 1680 nM and a TGI (A549 NSCLC) of 4.13 µM. For the same compound, the GI50 (ACHN renal) was 544 nM, the TGI (ACHN renal) was 1770 nM and the GI50 (BT-549 breast) was 1000 nM. The TGI (BT-549 breast) was 2250 nM, the GI50 (CAKI-1 renal) was 471 nM and the TGI (CAKI-1 renal) was 1830 nM. For the same compound, the GI50 (CCRF-CEM leukemia) was 321 nM, the TGI (CCRF-CEM leukemia) was 1570 nM and the GI50 (COLO 205 colon) was 1360 nM. It also gave a TGI (COLO 205 colon) of 3.75 µM, a GI50 (DU-145 prostate) of 1190 nM and a TGI (DU-145 prostate) of 2480 nM. The GI50 (EKVX NSCLC) was 1390 nM, the TGI (EKVX NSCLC) was 2940 nM and the GI50 (HCC-2998 colon) was 1580 nM. The TGI (HCC-2998 colon) was 3.21 µM, the GI50 (HCT-116 colon) was 207 nM and the TGI (HCT-116 colon) was 648 nM. For the same compound, the GI50 (HCT-15 colon) was 317 nM, the TGI (HCT-15 colon) was 1260 nM and the GI50 (HL-60(TB) leukemia) was 753 nM. It also gave a TGI (HL-60(TB) leukemia) of 2660 nM, a GI50 (HOP-62 NSCLC) of 1530 nM and a TGI (HOP-62 NSCLC) of 3.79 µM. It also gave a GI50 (HOP-92 NSCLC) of 765 nM, a TGI (HOP-92 NSCLC) of 2240 nM and a GI50 (HS 578T breast) of 1230 nM. For the same compound, the TGI (HS 578T breast) was 3.93 µM, the GI50 (HT29 colon) was 512 nM and the TGI (HT29 colon) was 2240 nM. The GI50 (IGROV1 ovarian) was 632 nM, the TGI (IGROV1 ovarian) was 2030 nM and the GI50 (K-562 leukemia) was 512 nM. For the same compound, the TGI (K-562 leukemia) was 7.41 µM, the GI50 (KM12 colon) was 1550 nM and the TGI (KM12 colon) was 3.53 µM. The GI50 (LOX IMVI melanoma) was 176 nM, the TGI (LOX IMVI melanoma) was 443 nM and the GI50 (M14 melanoma) was 1070 nM. It also gave a TGI (M14 melanoma) of 2440 nM, a GI50 (MALME-3M melanoma) of 1440 nM and a TGI (MALME-3M melanoma) of 2800 nM. The GI50 (MCF7 breast) was 389 nM, the TGI (MCF7 breast) was 2110 nM and the GI50 (MDA-MB-231 breast) was 1090 nM. It also gave a TGI (MDA-MB-231 breast) of 2370 nM, a GI50 (MDA-MB-435) of 1060 nM and a TGI (MDA-MB-435) of 2390 nM. It also gave a GI50 (MOLT-4 leukemia) of 526 nM, a TGI (MOLT-4 leukemia) of 3.12 µM and a GI50 (NCI-H226 lung) of 1610 nM. For the same compound, the TGI (NCI-H226 lung) was 3.78 µM, the GI50 (NCI-H23 lung) was 1540 nM and the TGI (NCI-H23 lung) was 3.21 µM. For the same compound, the GI50 (NCI-H460 lung) was 1480 nM, the TGI (NCI-H460 lung) was 3.06 µM and the GI50 (NCI-H522 lung) was 596 nM. For the same compound, the TGI (NCI-H522 lung) was 2400 nM, the GI50 (NCI/ADR-RES ovarian) was 1820 nM and the TGI (NCI/ADR-RES ovarian) was 6.03 µM. The GI50 (OVCAR-3 ovarian) was 295 nM, the TGI (OVCAR-3 ovarian) was 1160 nM and the GI50 (OVCAR-4 ovarian) was 1200 nM. The TGI (OVCAR-4 ovarian) was 2650 nM, the GI50 (OVCAR-5 ovarian) was 1460 nM and the TGI (OVCAR-5 ovarian) was 3 µM. It also gave a GI50 (OVCAR-8 ovarian) of 1170 nM, a TGI (OVCAR-8 ovarian) of 3.04 µM and a GI50 (PC-3 prostate) of 1090 nM. The TGI (PC-3 prostate) was 2490 nM, the GI50 (RPMI-8226 leukemia) was 335 nM and the TGI (RPMI-8226 leukemia) was 1870 nM. For the same compound, the GI50 (RXF 393 renal) was 687 nM, the TGI (RXF 393 renal) was 1980 nM and the GI50 (SF-268 CNS) was 1410 nM. It also gave a TGI (SF-268 CNS) of 2850 nM, a GI50 (SF-295 CNS) of 1580 nM and a TGI (SF-295 CNS) of 2960 nM. It also gave a GI50 (SF-539 CNS) of 1330 nM, a TGI (SF-539 CNS) of 2600 nM and a GI50 (SK-MEL-2 melanoma) of 1850 nM. The TGI (SK-MEL-2 melanoma) was 3.69 µM, the GI50 (SK-MEL-28 melanoma) was 1480 nM and the TGI (SK-MEL-28 melanoma) was 2810 nM. It also gave a GI50 (SK-MEL-5 melanoma) of 1500 nM, a TGI (SK-MEL-5 melanoma) of 2850 nM and a GI50 (SK-OV-3 ovarian) of 2970 nM. For the same compound, the TGI (SK-OV-3 ovarian) was 9.13 µM, the GI50 (SN12C renal) was 814 nM and the TGI (SN12C renal) was 2120 nM. The GI50 (SNB-19 CNS) was 1450 nM, the TGI (SNB-19 CNS) was 2780 nM and the GI50 (SNB-75 CNS) was 1040 nM. For the same compound, the TGI (SNB-75 CNS) was 2270 nM, the GI50 (SR leukemia) was 350 nM and the TGI (SR leukemia) was > 100 µM. For the same compound, the GI50 (SW-620 colon) was 329 nM, the TGI (SW-620 colon) was 1190 nM and the GI50 (T-47D breast) was 1530 nM. The TGI (T-47D breast) was 4.51 µM, the GI50 (TK-10 renal) was 1670 nM and the TGI (TK-10 renal) was 3.12 µM. The GI50 (U251 CNS) was 1520 nM, the TGI (U251 CNS) was 3.17 µM and the GI50 (UACC-257 melanoma) was 1470 nM. It also gave a TGI (UACC-257 melanoma) of 3.17 µM, a GI50 (UACC-62 melanoma) of 1250 nM and a TGI (UACC-62 melanoma) of 2520 nM. It also gave a GI50 (UO-31 renal) of 377 nM and a TGI (UO-31 renal) of 1800 nM.
